According to US12006530B2, “Streptococcal proteases” (priority 2016, dated 2024):
Entries after “also recorded” stand apart in the source; their conditions may differ.

Columns and labels:
[1] = test system: IgG degradation activity in culture supernatant of S. suis strain 10; assay: Inhibitor profile of IgG degradation activity in S. suis culture supernatant, anti-IgG Western blot; assay type: biochemical, Streptococcus suis; conditions: for IgG cleavage product in presence of inhibitor: concentrated (10×) supernatant of strain 10, porcine plasma; for IgG cleaving activity in the presence of class specific protease inhibitors: protease enriched ammonium sulfate precipitates of S. suis culture supernatant, porcine plasma
Protocol: Concentrated (10×) culture supernatant of S. suis strain 10 was incubated with porcine plasma in presence of class specific protease inhibitors. The reaction was analyzed by anti-IgG western blot under reducing conditions.
To monitor IgG cleavage activity in concentrated and fractionated culture supernatants, samples were incubated with 1% porcine plasma in PBS for 16 h at 37° C. prior to Western blot analyses.
To identify the catalytic type of the IgG protease, the IgG degradation reaction was performed in the presence of 0.1-5 mM AEBSF (Sigma), 0.1-5 mM EDTA, 50-250 μM E-64 (Sigma), 0.1-5 mM Z-LVG-CHN2 (Bachem), 0.1-5 mM Iodoacetamide (Sigma) or 1/200 to 1/50 dilution of complete protease inhibitor cocktail (Roche).
(§1) Samples for SDS-PAGE were prepared with either reducing or non-reducing sample buffer and heated to 95° C. for 5 min. 12% SDS-PAGE was either stained with Coomassie blue (Sigma), Coomassie Fluor™ Orange Protein Gel Stain (Invitrogen) or blotted to Hybond-P PVDF membrane (GE Healthcare) for western blot analyses. Membranes were blocked with 5% dry milk powder in 0.1% PBS-Tween, followed by incubation with horse-radish peroxidase conjugated antibodies. Goat anti-pig IgG-HRP (Thermo Scientific) and goat anti-porcine IgM-HRP (Thermo Scientific) was diluted 1:25′000 and goat anti-porcine IgA-HRP (Thermo Scientific) was diluted 1:12′500. Membranes were thoroughly washed with 0.1% PBS-Tween prior to development with Amersham ECL Select Western blotting detection reagent (GE Healthcare) according to manufactures instruction and pictured by LAS4000 imaging system (Fujifilm).

S. suis IgdE^ΔC = assay: Inhibitor profile of purified recombinant IgdE^ΔC, quantitative IgG degradation analysis; assay type: biochemical, Streptococcus suis; conditions: porcine IgG
Protocol: The time course of cleavage (A) was monitored by continuous sampling prior to Coomassie fluor orange stained SDS-PAGE under reducing conditions followed by densitometric quantification of the cleavage product. 1.67 μM porcine IgG was incubated with 0.2 μM purified rIgdE^ac. Overnight cleavage (16 h) was set as 100% relative cleavage. For the inhibitor profile (B) initial cleavage in presence of 250 μM and 2.5 μM of each inhibitor was monitored. Initial cleavage activity of the uninhibited control was set as 100% relative activity. The DMSO control correlates to 250 μM Z-LVG-CHN2. Data are presented as mean±SEM of three experiments. Differences to the uninhibited control (*) or DMSO control (□) were analyzed by Dunnett's Multiple Comparison Test with significance set at P values of <0.05(*), <0.01(**) and <0.001(*** or □□□).
For time course analyses and inhibitor profiles the IgG degradation reaction was performed with 0.25 mg/ml porcine IgG and 2 μM purified IgdE^ΔC at 37° C. in PBS uninhibited or in the presence of 2.5 μM or […] AEBSF (Sigma), EDTA, E-64 (Sigma), lodoacetamide (Sigma), or Z-LVG-CHN2 (Bachem). DMSO (Sigma) at 0.275%, corresponding to the DMSO content in 250 µM Z-LVG-CHN2, was used as a solvent control. The reactions were continuously sampled and subjected to SDS-PAGE under reducing conditions. Protein bands were detected by staining with Coomassie Fluor™ Orange Protein Gel Stain (Invitrogen). The IgG degradation product was densitometrical quantified by imaging with LAS4000 imaging system (Fujifilm) and analyzed with Image Studio Version 3.1 (LI-COR Biosciences) software. Uninhibited over-night cleavage was set as 100% relative cleavage for the time course experiment. For the inhibitor profile the initial cleavage rate was calculated from the initial increase of cleavage product (0-25% relative cleavage) and the initial cleavage rate of the uninhibited reaction was set as 100% relative activity. Experiments were at least performed in triplicates. Statistical analyses were performed using GraphPad Prism Version 5.0.

porcine IgG = assay: IgG cleavage by IgdE, SDS-PAGE; assay type: biochemical, pig; conditions: 3.3 μM porcine IgG, 16 h at 37° C., soluble fractions of E. coli expressing the construct, reducing SDS-PAGE
Protocol: (A) Schematic illustration of IgdE and the different rIgdE constructs with potential active site residues substitutions and the C-terminal truncation variant. The secretion signal peptide (residues 1-37) is marked in light grey, the transglutaminase domain is boxed and the potential active site residues and substitutions are indicated. (B) 3.3 μM porcine IgG was incubated for 16 h at 37° C. with soluble fractions of E. coli cells expressing different rIgdE constructs. The reaction was analyzed SDS-PAGE under reducing conditions. […] The weak protein band of 37 kDa is a contaminant present in lysate preparation and not related to IgdE activity.
0.5 mg/ml of porcine IgG (Sigma) in PBS or of other species (human, goat, cow, horse and mouse; all Sigma) were incubated with either crude extracts of induced E. coli carrying S. suis IgdE constructs mentioned above or 10 nM purified rIgdE for 16 h at 37° C. prior subjection to SDS-PAGE under either reducing or non-reducing conditions.
as §1

## NCCc1ccc(S(=O)(=O)F)cc1 [AEBSF]
[1]; inhibitor 5 mM
  IgG cleavage product in presence of inhibitor: no degradation product was observed
[1]; inhibitor 0.1-1 mM
  IgG cleavage product in presence of inhibitor: A cleavage product of IgG can be observed
[1]
  IgG cleaving activity in the presence of class specific protease inhibitors: interfered moderately with IgG cleavage
S. suis IgdE^ΔC; 125 fold molar excess of inhibitor, 37° C., up to 18 h
  IgG proteolytic activity of purified IgdE^ΔC in presence of inhibitor: inhibited the IgdEAC moderately

## CC(C)C[C@H](NC(=O)[C@H]1O[C@@H]1C(=O)O)C(=O)NCCCCN=C(N)N [E-64]
[1]; at very high concentrations
  IgG cleavage activity of S. suis culture supernatants in presence of inhibitor: interfered with IgG cleavage activity
[1]; inhibitor 50 μM
  IgG cleavage product in presence of inhibitor: A cleavage product of IgG can be observed
[1]; inhibitor 250 μM
  IgG cleavage product in presence of inhibitor: no degradation product was observed
[1]
  IgG cleaving activity in the presence of class specific protease inhibitors: appeared to inhibit IgG degrading activity
S. suis IgdE^ΔC; purified recombinant IgdE^ΔC, inhibitor at 250 μM and 2.5 μM per FIG. 3
  IgG proteolytic activity of purified IgdE^ΔC in presence of inhibitor: did not inhibit

B1: rIgdE^D348A (protein)
chain: DENSHLQSPKNTNKIEVLNWEAFSKKLKDYSSDQRQFHVLKLGFENRLGTLSTREELEEFGKNNNFLVINGKVTQNIHDFPHILVMNKGDVIAHNEEDYHNQMRELRFSGNGDLHNSMEPKRIHALFKIELDSNKRQLLNAAGLGTAENSLKNINGMTIYSHGLTVDNKYYEDYSKYTHNSVKNINVTKERFIANDDLIHKLIESSEAMKQSSERDKVKAFVQYVANHTTYDWEAANKAVQNYADINYYLGSDLFAVTERQKAMCVGFSTTAARAFNMLGLPAYVVVGKNAEGVPHATARVYYDKKWHTIAGTGFITGNKHQRSAKYSEKHFSTIGEDSYDVVEAGQEPKAERNYMIIDSNYESWAMKQKTADLLLFNKEKSLVGLDYIAYVEPTYITENKKNHLLDIYKALKRKVEETKATDKDDKDDKQEGYDRVLQFVNSDIDKLSALSKITEEEFKALENSMDLARVFLGQMNAKAGKEFSEGETYQSYLKNRQKNNTNSDDDRNRNELQENQANSDEVSQNSKDASAPSVNSAQQSEELEGTPSTQETISAAPSQQTPAAPKALQAKTELEDKTETSSLGNTEMVSPSSETAQNTVDSKEESDAKLPYVEPSSKESSEAQVNTVSSPQVSSASPTSSETISTDTVTASQEKAESRVSAPQVISASQTSPETNSAEVVTTSQEVAKAPVSAPQVSSEIQTLSETAPTEVATEAPELSALESNPAPQTSLETTPTEEVTETPEPSVVESNSASPTSPETNSAEAVTTSQEMAEPSVSVPQVSSEIPTSSETAPAEVATEVSEESSSASQPSPETTPTETVTTSQEVAEAPVSAPQVSSEIPTSPETASTEVVVAKQEVADSPVSAPQVISEIPTSSETAPAEVATEVTEPSVVASSSASPTSPEANSTEVVVAKQEVADPLVSAPQTSSASLTLEVPKNEHLDEKADATTPNGVEANTHEAVSVPTSDIRVQDAGSDTVPQPYSLSATLFEEAISTVEPVGVATSSQERSAVAGKVKVPTSLERSNNSVEEEKVVDSNATIENREPEKKEILTSENVLNSLVTIWVALSTSFFMRYFSRGK
Porcine IgG
  IgG cleavage (32 kDa band) by rIgdE constructs: IgG cleavage (*) occurred; also recorded: somewhat reduced IgG cleaving activity

B2: rIgdE^C302S (protein)
chain: DENSHLQSPKNTNKIEVLNWEAFSKKLKDYSSDQRQFHVLKLGFENRLGTLSTREELEEFGKNNNFLVINGKVTQNIHDFPHILVMNKGDVIAHNEEDYHNQMRELRFSGNGDLHNSMEPKRIHALFKIELDSNKRQLLNAAGLGTAENSLKNINGMTIYSHGLTVDNKYYEDYSKYTHNSVKNINVTKERFIANDDLIHKLIESSEAMKQSSERDKVKAFVQYVANHTTYDWEAANKAVQNYADINYYLGSDLFAVTERQKAMSVGFSTTAARAFNMLGLPAYVVVGKNAEGVPHATARVYYDKKWHTIDGTGFITGNKHQRSAKYSEKHFSTIGEDSYDVVEAGQEPKAERNYMIIDSNYESWAMKQKTADLLLFNKEKSLVGLDYIAYVEPTYITENKKNHLLDIYKALKRKVEETKATDKDDKDDKQEGYDRVLQFVNSDIDKLSALSKITEEEFKALENSMDLARVFLGQMNAKAGKEFSEGETYQSYLKNRQKNNTNSDDDRNRNELQENQANSDEVSQNSKDASAPSVNSAQQSEELEGTPSTQETISAAPSQQTPAAPKALQAKTELEDKTETSSLGNTEMVSPSSETAQNTVDSKEESDAKLPYVEPSSKESSEAQVNTVSSPQVSSASPTSSETISTDTVTASQEKAESRVSAPQVISASQTSPETNSAEVVTTSQEVAKAPVSAPQVSSEIQTLSETAPTEVATEAPELSALESNPAPQTSLETTPTEEVTETPEPSVVESNSASPTSPETNSAEAVTTSQEMAEPSVSVPQVSSEIPTSSETAPAEVATEVSEESSSASQPSPETTPTETVTTSQEVAEAPVSAPQVSSEIPTSPETASTEVVVAKQEVADSPVSAPQVISEIPTSSETAPAEVATEVTEPSVVASSSASPTSPEANSTEVVVAKQEVADPLVSAPQTSSASLTLEVPKNEHLDEKADATTPNGVEANTHEAVSVPTSDIRVQDAGSDTVPQPYSLSATLFEEAISTVEPVGVATSSQERSAVAGKVKVPTSLERSNNSVEEEKVVDSNATIENREPEKKEILTSENVLNSLVTIWVALSTSFFMRYFSRGK
Porcine IgG
  IgG cleavage (32 kDa band) by rIgdE constructs: neither rIgdE^C302S nor rIgdE^H333A exhibited IgG cleaving activity

B3: rIgdE^H333A (protein)
chain: DENSHLQSPKNTNKIEVLNWEAFSKKLKDYSSDQRQFHVLKLGFENRLGTLSTREELEEFGKNNNFLVINGKVTQNIHDFPHILVMNKGDVIAHNEEDYHNQMRELRFSGNGDLHNSMEPKRIHALFKIELDSNKRQLLNAAGLGTAENSLKNINGMTIYSHGLTVDNKYYEDYSKYTHNSVKNINVTKERFIANDDLIHKLIESSEAMKQSSERDKVKAFVQYVANHTTYDWEAANKAVQNYADINYYLGSDLFAVTERQKAMCVGFSTTAARAFNMLGLPAYVVVGKNAEGVPAATARVYYDKKWHTIDGTGFITGNKHQRSAKYSEKHFSTIGEDSYDVVEAGQEPKAERNYMIIDSNYESWAMKQKTADLLLFNKEKSLVGLDYIAYVEPTYITENKKNHLLDIYKALKRKVEETKATDKDDKDDKQEGYDRVLQFVNSDIDKLSALSKITEEEFKALENSMDLARVFLGQMNAKAGKEFSEGETYQSYLKNRQKNNTNSDDDRNRNELQENQANSDEVSQNSKDASAPSVNSAQQSEELEGTPSTQETISAAPSQQTPAAPKALQAKTELEDKTETSSLGNTEMVSPSSETAQNTVDSKEESDAKLPYVEPSSKESSEAQVNTVSSPQVSSASPTSSETISTDTVTASQEKAESRVSAPQVISASQTSPETNSAEVVTTSQEVAKAPVSAPQVSSEIQTLSETAPTEVATEAPELSALESNPAPQTSLETTPTEEVTETPEPSVVESNSASPTSPETNSAEAVTTSQEMAEPSVSVPQVSSEIPTSSETAPAEVATEVSEESSSASQPSPETTPTETVTTSQEVAEAPVSAPQVSSEIPTSPETASTEVVVAKQEVADSPVSAPQVISEIPTSSETAPAEVATEVTEPSVVASSSASPTSPEANSTEVVVAKQEVADPLVSAPQTSSASLTLEVPKNEHLDEKADATTPNGVEANTHEAVSVPTSDIRVQDAGSDTVPQPYSLSATLFEEAISTVEPVGVATSSQERSAVAGKVKVPTSLERSNNSVEEEKVVDSNATIENREPEKKEILTSENVLNSLVTIWVALSTSFFMRYFSRGK
Porcine IgG
  IgG cleavage (32 kDa band) by rIgdE constructs: neither rIgdE^C302S nor rIgdE^H333A exhibited IgG cleaving activity
